The target in one test is T1, Tankyrase 1 (TNKS1) (Homo sapiens, UniProt O95271).
T1 construct: His6-TNKS1, MW=28.2 KDa (construct: 1088-1327, 1266M)
The test can be described thus: μHTS-TNKS-IWR2 TR-FRET Binding Assay (Example 118), His6-TNKS1. On the procedure: (§1) μHTS-TNKS-IWR2 TR-FRET Binding Assay (10 μL/well in BD1536-well plate, a single point)
(§2) Reagents and Stock Solutions
(§3) Biotin-4-((1S,2R,6S,7R)-3,5-Dioxo-4-aza-tricyclo[5.2.1.0*2,6]dec-8-en-4-yl)-N-(4-methyl-quinolin-8-yl)-benzamide (Biotin-IWR2): 10 mM Biotin-IWR2 stock in DMSO, stored at −20° C.
(XAV939) in DMSO, stored at −20° C.
(§4) Assay buffer 1a (AB1a) for TNKS dilution: 50 mM Tris, pH 7.4, 100 mM sodium chloride solution, 1 mM magnesium chloride solution, 1 mM DL-dithiothreitol solution, 0.2 mg/mL bovine serum albumin solution, 0.025% NP-40.
(§5) Assay buffer 1b (AB1b) for Biotin-IWR2 dilution: 50 mM Tris, pH 7.4, 100 mM sodium chloride solution, 1 mM magnesium chloride solution, 1 mM DL-dithiothreitol solution, 0.2 mg/mL bovine serum albumin solution, 0.05% NP-40
(§6) Assay buffer 1c (AB1c) for compound dilution: 50 mM Tris, pH 7.4, 100 mM sodium chloride solution, 1 mM magnesium chloride solution, 1 mM DL-dithiothreitol solution, 0.2 mg/mL bovine serum albumin solution
(§7) Assay buffer 2 (AB2) for Eu/APC: 50 mM Tris, pH 7.4, 100 mM sodium chloride solution, 1 mM magnesium chloride solution, 0.2 mg/mL bovine serum albumin solution
(§8) Reagent Stock Solution Preparation
(§9) Prepare BLANK well stock solution: 5% DMSO/AB1b buffer
(§10) Prepare TNKS 1 stock solution (5× stock): 300 nM TNKS in AB1a buffer. (Alternatively, use TNKS2 or PARP1 stock solutions.)
Transfer 3 μL/well of above solution (solution 1,2,3) to an empty assay plate (BD1536-well plate) as follows: • TOTAL and cpd wells: Solution 1 (Biotin-IWR2): • BLANK wells: Solution 2 (No Biotin-IWR2): • POSITIVE CONTROL wells: Solution 3 (Biotin-IWR2+XAV939)
(§11) Transfer 3 μL/well of the above diluted compound solutions or compound dilution buffer to the above assay plate. Add 2 μL/well of 300 nM TNKS stock solution (4) to every well in the above assay plate. Centrifuge the assay plate at 2100 rpm for 2 min. Incubate the assay plate at 26° C. for 30 minutes. Add 2 μL/well 3.5 nMEu/50 nM APC solution (5) to every well in the above assay plate. Centrifuge the assay plate at 2100 rpm for 2 min. Incubate the assay plate at 26° C. for 60 min.

A further test concerns the target T2, tankyrase 2 (TNKS2) (Homo sapiens, UniProt Q9H2K2).
T2 construct: His6-tankyrase 2 (construct: 934-1166) (His6-TNKS2)
The test can be described thus: μHTS-TNKS-IWR2 TR-FRET Binding Assay (Example 118), His6-TNKS2 substituted. The conditions noted are these: procedure in Example 118 with His6-TNKS2. On the procedure:
as §1, §2
Tankyrase 1 (TNKS1): 184.3 μM=5.2 mg/mL His6-TNKS1, MW=28.2 KDa (construct: 1088-1327, 1266M) in 20 mM Tris pH 8, 150 mM NaCl, 10% glycerol, and 0.5 mM TCEP. Alternatively, His6-tankyrase 2 (construct: 934-1166) (His6-TNKS2) or His6-PARP1 (full length) can be substituted for His6-TNKS 1.
as §3
Positive control: 10 mM 2-(4-Trifluoromethyl-phenyl)-3,5,7,8-tetrahydro-thiopyrano[4,3-d]pyrimidin-4-one (XAV939) in DMSO, stored at −20° C.
APC-anti-His Ab: 8.50 μM SL-APC, 8.26 μM anti-6His antibody-SureLight APC (Columia Bioscience, Catalog Number D3-1711, Lot Number N01010-AAH04)
Assay plate: BD 1536-well, clear/black plate (Catalog Number 353255)
as §4, §5, §6, §7, §8
Prepare Biotinylated IWR2 stock solution (3.33× stock) for TOTL and compound wells: 200 nM Biotin-IWR2 in 5% DMSO/AB1b buffer
as §9
Prepare POSITIVE CONTROL well stock solution (3.33× stock): 200 nM XAV939 in 200 nM Biotin-IWR2/5% DMSO/AB1b buffer
as §10
Prepare Eu/APC stock solution (5× stock): 3.5 nM Eu-SA/50 nM APC-His6Ab in AB2 buffer.
Add 25 μL/well 1.5% DMSO/AB1c buffer in each compound well to the compound concentration at 74 μM in 8.8% DMSO/AB1c buffer or in the 2 μL DMSO CONTROL wells (BLANK, TOTAL and POSITIVE wells) in the compound plate. Transfer 3 μL/well of above solution (solution 1,2,3) to an empty assay plate (BD1536-well plate) as follows: • TOTAL and cpd wells: Solution 1 (Biotin-IWR2): • BLANK wells: Solution 2 (No Biotin-IWR2): • POSITIVE CONTROL wells: Solution 3 (Biotin-IWR2+XAV939)
as §11, with “60 min. Read the assay plate immediately at excitation wavelength of 330 nm and emission wavelength of […] in time resolved fluorescence mode.” for “60 min.”
XAV939 (+ve control): 60 nM at ˜70% Inhibition
General Library compounds: 22.23 μM in 4% DMSO
In general terms: Time-resolved FRET reads energy transfer from a long-lived donor to a nearby acceptor.

For 16 molecules, IC50 results are on record in patent US20130345215A1, “PYRAZOLOPYRIMIDONE AND PYRAZOLOPYRIDONE INHIBITORS OF TANKYRASE” (Genentech, Inc., priority 2012, published 2013).

In general, IC50 refers to the concentration that gives 50% inhibition. A high value points to weaker potency in that assay.

T1 sequence (O95271 1088-1327): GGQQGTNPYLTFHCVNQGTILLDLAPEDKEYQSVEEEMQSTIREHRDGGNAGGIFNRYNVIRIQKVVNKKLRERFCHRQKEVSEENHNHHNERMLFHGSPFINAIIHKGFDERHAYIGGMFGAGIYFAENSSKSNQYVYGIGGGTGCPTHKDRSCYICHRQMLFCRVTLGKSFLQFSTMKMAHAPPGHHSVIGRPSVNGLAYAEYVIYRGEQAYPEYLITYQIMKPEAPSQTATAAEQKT
T2 sequence (Q9H2K2 934-1166): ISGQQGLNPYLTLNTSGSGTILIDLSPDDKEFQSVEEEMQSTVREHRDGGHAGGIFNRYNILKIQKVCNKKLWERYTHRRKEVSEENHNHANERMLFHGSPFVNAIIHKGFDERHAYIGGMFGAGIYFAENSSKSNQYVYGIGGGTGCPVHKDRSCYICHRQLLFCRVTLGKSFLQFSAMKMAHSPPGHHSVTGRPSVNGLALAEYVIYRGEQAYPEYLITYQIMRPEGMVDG

Consider `Cn1ncc2c(=O)[nH]c(N3CCN(c4ccc(F)cc4F)CC3)nc21` [Compound I-14, 6-[4-(2 4-difluorophenyl)piperazin-1-yl]-1-methyl-5H-pyrazolo[3 4-d]pyrimidin-4-one], for which the figures for the IC50 on Tankyrase 1 (TNKS1) and at tankyrase 2 (TNKS2) were 39 nM and 47.1 nM, respectively.
The corresponding values for `CCOC(=O)c1ccc(N2CCN(c3nc4c(cnn4C)c(=O)[nH]3)CC2)cc1` [Compound I-41, ethyl 4-[4-(1-methyl-4-oxo-5H-pyrazolo[3 4-d]pyrimidin-6-yl)piperazin-1-yl]benzoate] are 107 nM and 135 nM.
Turning to `Cn1ncc2c(=O)[nH]c(N3CCN(c4c(Cl)cccc4Cl)CC3)nc21` [Compound I-42, 6-[4-(2 6-dichlorophenyl)piperazin-1-yl]-1-methyl-5H-pyrazolo[3 4-d]pyrimidin-4-one], the values for the IC50 at Tankyrase 1 (TNKS1) and at tankyrase 2 (TNKS2) were 24 nM and 26.3 nM, respectively.
Turning to `Cn1ncc2c(=O)[nH]c(N3CCN(c4c(F)cc([N+](=O)[O-])cc4F)CC3)nc21` [Compound I-49, 6-[4-(2 6-difluoro-4-nitro-phenyl)piperazin-1-yl]-1-methyl-5H-pyrazolo[3 4-d]pyrimidin-4-one], the figures for the IC50 on Tankyrase 1 (TNKS1) and at tankyrase 2 (TNKS2) were 34 nM and 32.6 nM, respectively.
Turning to `Cn1ncc2c(=O)[nH]c(N3CCN(c4ccc(F)cc4S(C)(=O)=O)CC3)nc21` [Compound I-22, 6-[4-(4-fluoro-2-methylsulfonyl-phenyl)piperazin-1-yl]-1-methyl-5H-pyrazolo[3 4-d]pyrimidin-4-one], the IC50 at Tankyrase 1 (TNKS1) is 44 nM; on tankyrase 2 (TNKS2), 55 nM.
In the same order, the values of `Cn1ncc2c(=O)[nH]c(N3CCC(C#N)(c4ccccc4)CC3)nc21` [Compound I-24, 1-(1-methyl-4-oxo-5H-pyrazolo[3 4-d]pyrimidin-6-yl)-4-phenyl-piperidine-4-carbonitrile] are 27 nM and 33.3 nM.
`Cn1ncc2c(=O)[nH]c(N3CCN(c4ccc(C(=O)O)cc4F)CC3)nc21` [Compound I-40, 3-fluoro-4-[4-(1-methyl-4-oxo-5H-pyrazolo[3 4-d]pyrimidin-6-yl)piperazin-1-yl]benzoic acid]: the IC50 at Tankyrase 1 (TNKS1) stood at 41 nM; at tankyrase 2 (TNKS2), 39.4 nM.
In the same order, the values of `Cn1ncc2c(=O)[nH]c(N3CCN(c4ccc(F)cc4F)CC3)cc21` [Compound I-16, 6-[4-(2 4-difluorophenyl)piperazin-1-yl]-1-methyl-5H-pyrazolo[4 3-c]pyridin-4-one] are 48 nM and 47.4 nM.
For `O=c1[nH]c(N2CCC(c3ccc(F)cc3)CC2)nc2[nH]ncc12` [Compound I-9, 6-[4-(4-fluorophenyl)-1-piperidyl]-1 5-dihydropyrazolo[3 4-d]pyrimidin-4-one], the half-maximal inhibitory concentration (IC50) on Tankyrase 1 (TNKS1) was 374 nM; on tankyrase 2 (TNKS2) it was 664 nM.
In the same order, the values of `Cn1ncc2c(=O)[nH]c(N3CCN(c4c(F)cccc4F)CC3)cc21` [Compound I-51, 6-[4-(2 6-difluorophenyl)piperazin-1-yl]-1-methyl-5H-pyrazolo[4 3-c]pyridin-4-one] are 25 nM and 23.1 nM.
The corresponding values for `Cn1ncc2c(=O)[nH]c(N3CCN(c4ccc(-c5nnn[nH]5)cc4F)CC3)nc21` [Compound I-31, 6-[4-[2-fluoro-4-(1H-tetrazol-5-yl)phenyl]piperazin-1-yl]-1-methyl-5H-pyrazolo[3 4-d]pyrimidin-4-one] are 26 nM and 24.6 nM.
The corresponding values for `Cn1ncc2c(=O)[nH]c(N3CCN(C4CCS(=O)(=O)C4)CC3)nc21` (centres unmarked) [Compound I-36, 6-[4-(1 1-dioxothiolan-3-yl)piperazin-1-yl]-1-methyl-5H-pyrazolo[3 4-d]pyrimidin-4-one] are 1930 nM and 1600 nM.
Regarding `O=c1[nH]c(N2CCN(c3ccccc3F)CC2)cc2[nH]ncc12` [Compound I-12, 6-[4-(2-fluorophenyl)piperazin-1-yl]-1 5-dihydropyrazolo[4 3-c]pyridin-4-one], the figures for the IC50 on Tankyrase 1 (TNKS1) and on tankyrase 2 (TNKS2) were 105 nM and 176 nM, respectively.
`Cn1ncc2c(=O)[nH]c(N3CCN(c4ccc(F)c(C(F)(F)F)c4)CC3)nc21` [Compound I-39, 6-[4-(4-fluoro-3-(trifluoromethyl)phenyl]piperazin-1-yl]-1-methyl-5H-pyrazolo[3 4-d]pyrimidin-4-one]: the IC50 on Tankyrase 1 (TNKS1) was 331 nM; at tankyrase 2 (TNKS2), 303 nM.
In the same order, the values of `Cn1ncc2c(=O)[nH]c(N3CCN(c4ccc(S(N)(=O)=O)cc4F)CC3)nc21` [Compound I-48, 3-fluoro-4-[4-(1-methyl-4-oxo-5H-pyrazolo[3 4-d]pyrimidin-6-yl)piperazin-1-yl]benzenesulfonamide] are 34 nM and 49.2 nM.
In the same order, the values of `Cn1ncc2c(=O)[nH]c(N3CCN(c4ccccc4C#N)CC3)cc21` [Compound I-17, 2-[4-(1-methyl-4-oxo-5H-pyrazolo[4 3-c]pyridin-6-yl)piperazin-1-yl]benzonitrile] are 103 nM and 97 nM.
